A melting point compilation (Tetko et al.; mined from patent text by program, amines drawn as free bases though some values may be those of a salt)
Residues, ends and D or L forms follow the SMILES beside them. *: point of attachment. Tos = Cc1ccc(S(=O)(=O)*)cc1

SMILES | melting point [°C]
O=C(Nc1ccc(C(=O)N2CCCCc3ccccc32)c(Cl)c1)OCCOc1ccccc1 | 144 to 146
CCC1(O)CC(=O)OCc2c1cc1n(c2=O)Cc2c-1nc1ccccc1c2-c1ccc(C)cc1 (configuration not stated) | > 280
CC(C)c1nnc2c3ccc(Cl)cc3c(-c3ccccc3)nn12 | 214 to 216
COC(=O)c1ccc(COc2ccc3cc(-c4ccc(-c5ccccc5)n4Cc4ccc(C(F)(F)F)cc4)ccc3c2)cc1 | 154 to 155
CCc1nc2c(C)cc(C)nc2n1Cc1ccc(C(c2ccccc2)C(C)C(=O)NS(C)(=O)=O)cc1 (configuration not stated) | 117 to 120
CNC(=O)c1cc(C)ccc1Nc1nc(Cl)ncc1Cl | 192 to 210
CC(C)c1cc(C(=O)CON2C(=O)c3ccccc3C2=O)cc(C(C)C)c1O | 136 to 139
CN1C(=O)C(S)=C(S)C1=O | 145 to 148
O=C(Nc1ccc(Cl)c(Cl)c1)O[C@H]1COC(c2ccccc2)=N[C@@H]1c1ccccc1 (racemic) | 184
CCS(=O)(=O)N(C)C1CCCOc2c(C)cc(Cl)cc21 (configuration not stated) | 141 to 143
CN1CCN(CC(=O)C2CC3c4cccc5[nH]cc(c45)CC3N(C)C2)CC1 (configuration not stated) | 198 to 202
CC(C)(C)c1nc(-c2n[nH]c(=O)o2)nc(C(C)(C)C)c1O | 230 to 232
S=C(Cc1ccc2c(c1)CCO2)N1CCOCC1 | 141 to 143
O=C(O[C@@H]1[C@@H](Br)C[C@]2(O)C[C@H]1OC2=O)c1ccccc1 | 142 to 143
COC(=O)c1nnc(Cl)cc1NCc1ccc(OC)c(Cl)c1 | 162 to 163
CCOc1ccc(OCc2ccccc2)c(C(=O)OC)n1 | 45 to 46
CC(C)CC(NC(=O)C(Cc1c[nH]cn1)NC(=O)C(CC(=O)N1CCCCC1)Cc1cccc2ccccc12)C(O)C(=O)OC(C)C (mixture of isomers) | 91 to 97
O=C(O)c1cc(F)cc(-c2cccc3cc(Cc4ccc(F)c(Cl)c4)sc23)c1 | 135 to 137
COc1nc2cc(Cl)c(C)c(NS(C)(=O)=O)c2nc1OC | 228 to 229
CC1CC(C)CN(Cc2ccc(NC(=O)C#Cc3ccc(-c4ccc(Cl)cc4)cc3)cc2)C1 (configuration not stated) | 209 to 214
COc1cc(/C=C/C(=O)/C=C/c2cc(OC)c(OCCN=[N+]=[N-])c(OC)c2)cc(OC)c1OCCN=[N+]=[N-] | 107 to 109
CCOC(=O)CN=c1sc2ccccc2s1 | 88 to 89
Cc1cccc(-c2n[nH]cc2-c2ccc(F)c(-c3ccc(S(=O)(=O)C(F)(F)F)cc3)c2)n1 | 81 to 84
COc1ccc(C(=O)CCc2cccnc2)cc1 | 76 to 78
CCOC(=O)c1ccc(NCc2nccnc2OCc2ccccc2)cc1 | 112

SMILES | melting point [°C]
CCCSc1ncc(CC(NC(=O)c2ccccc2)C(=O)O)n1Cc1ccccc1Cl (configuration not stated) | 210 to 212
CC1(C)OC[C@H](CCOc2ccc(-c3nc4c5ccccc5c5ccccc5c4[nH]3)cc2)O1 | 196 to 198
CCCCOC(=O)CN1CCC(NC(=O)OC(C)(C)C)CC1 | 116
O=C(c1ccccc1C(F)(F)F)N1CCCN(CC2=Nc3cccc4c(=O)[nH]nc(c34)N2)CC1 | 140 to 142
COc1ccc(C(=O)N2c3ccccc3C(n3c4ccccc4c4ccccc43)CC2CCCCCN2CCC(c3cccc(C(F)(F)F)c3)CC2)cc1OC (configuration not stated) | 149 to 150
CCSc1nn2c(-c3ccccc3)nnc2c2ccccc12 | 190 to 191
N#CC=Cc1ccc(F)cc1 | 64 to 65
O=C1c2cc(O)ccc2OCC1Cc1cccnc1 (configuration not stated) | 163 to 166
CC(Cl)C(=O)NOCc1ccccc1 (configuration not stated) | 70.1 to 72.8
OCCCc1cc(Cl)cc2nc(Cc3ccccc3Cl)oc12 | 87 to 89
Cc1ccc(Cl)cc1N1CCCN(C2CCC2)C1=S | 152 to 154
Cc1oc(-c2ccccc2)nc1CCOc1ccc(C[C@@H](C(=O)O)n2ccc(-c3ccccc3)c2)cc1 | 146 to 147
COC(=O)c1ccc(OCCCN2CCN(c3ccc(Cl)nn3)CC2)cc1 | 128 to 130
Cc1ccc(S(=O)(=O)N2CCC[C@H]2C(=O)N[C@@H](CC(=O)O)C(=O)O)cc1 (Tos-Pro-Asp-OH) | 153 to 155
Cc1c(Cl)cncc1Cl | 46 to 47
COc1ccc(COCc2cccc(C(=O)O)c2)cc1OC1CC2CCC1C2 (configuration not stated) | 77 to 79
CN1CCN(c2cccc3c2C[C@H](NC(=O)c2ccc(OC(F)(F)F)cc2)CO3)CC1 | 192 to 193
O=C(Nc1cc(-c2ccnc3c(C(=O)c4cccs4)cnn23)ccc1F)c1ccccc1F | 214 to 216
O=C1CN(Cc2ccccc2)c2cc(-c3cccc(Cl)c3)ccc2N1 | 182 to 185
OC(CCC1CCN(Cc2ccccc2)CC1)c1ccc(N2CCCC2)cc1 (configuration not stated) | 93 to 95
S=C1N=c2ccc(OCCN3CCC(Cc4ccccc4)CC3)cc2=N1 | 273 to 275
Cc1cc(-c2ccc(C(F)(F)F)cc2)cc(-c2cccc(-c3cccc(S(=O)(=O)NC(=O)C(C)C)c3)n2)n1 | 190
NC(=O)C(Nc1ccc(Cl)cc1)c1c(Cl)cccc1Cl (configuration not stated) | 178
O=C1C2CCCCC2C(=O)N1c1cc(C(F)(F)F)cc(C(F)(F)F)c1 (configuration not stated) | 85 to 87
CC1(C)OC[C@@H](N)[C@H](O)CO1 (relative stereo) | 81.5 to 82.5

SMILES | melting point [°C]
COc1cc2ccc(-c3cc(OCc4ccccc4)c(OC)cc3[N+](=O)[O-])cc2cc1OC | 151 to 153
CC1(C)CC(SCc2c(C(F)(F)F)nn(C(C)(C)C)c2Cl)=NO1 | 79 to 81
Cc1c(S(C)(=O)=O)ccc(C(=O)C2SCCCC2=O)c1Cl (configuration not stated) | 142 to 144
CC(C)C(=O)Oc1ccc2nc(NC(=O)Nc3ccccc3)sc2c1 | 212 to 215
NC(=O)NCCCC(NC(=O)OCc1ccccc1)C(=O)OCc1ccc([N+](=O)[O-])cc1 (configuration not stated) | 144 to 146
COc1ccc(C=O)c(OC)c1Cl | 107 to 108
CCCc1cc(N2CCN(c3ccncc3)CC2)ccc1OCCCC(=O)O | 207 to 209
CCOC(=O)c1ccc(C#C[Si](C)(C)C)nc1 | 55
CCN1C(=O)C(C)(C)CCc2c1ccc(Nc1ncc(Cl)c(Nc3ccccc3C(=O)NC)n1)c2OC | 226 to 228
Cc1c(N2C(=O)CCC2=O)nc(C)n2c1c(CCCl)c1ccccc12 | 232 to 234
CCc1cn(C2CC(O)C(CN(C)C(=O)Cc3ccccc3Br)O2)c(=O)[nH]c1=O (configuration not stated) | 182 to 185
O=C1c2ccccc2-c2c1c1ccccc1c(=O)n2CCCCCCCCCCCCn1c2c(c3ccccc3c1=O)C(=O)c1ccccc1-2 | 226 to 228
CSc1cccc(-c2ccccc2NC(=N)N(C)C)c1 | 94 to 95
CC(=O)Oc1cccc2c1OC(C)(C)C2 | 49 to 50
COc1ccc(Nc2ccn(Cc3ccccc3)n2)cc1 | 68 to 71
CCOC(=O)Cc1ccnc(-c2nn(C(C)(C)C)c(N)c2C#N)c1 | 141 to 143
Clc1ncnc2oc(-c3ccccc3)cc12 | 136 to 138
C1=Cc2ccccc2C2(CO2)c2ccccc21 | 90 to 91
CCOC1CC2(C)C(CCC3C4CCC(=O)C4(C)CC(=O)C32)CC1O (configuration not stated) | 164 to 167
COc1ccc(CCCC(=O)Nc2c(C)c(C)c3c(c2C)C(c2ccc(C)cc2)C(C)(C)O3)cc1 (configuration not stated) | 166 to 167
CC(C)(C(=O)O)c1ccc(OC(F)F)cc1 | 68.5 to 69.5
Cc1cc(C)cc(N(CCCC(N)=O)Cc2ccc3nc(NCCCN4CCOCC4)n(Cc4ncccc4O)c3c2)c1 | 170
CC(=O)OC1CCC2(C)C(=CCC3C2CCC2(C)C(C(C)=O)CCC32F)C1 (configuration not stated) | 128
O=C(/C=C/c1ccccc1Sc1ccc(Cl)cc1Cl)NCCCCO | 68 to 71
NNC1=Nc2ccc(Cl)cc2N(c2ccccc2)C(=O)C1 | 91 to 93

SMILES | melting point [°C]
O=C1OCCN1CCCC(c1cc(F)ccc1F)S(=O)(=O)c1ccc(Cl)cc1 (configuration not stated) | 156 to 159
COc1ccc(C2(c3ccc(OC)cc3)CCN(CC[C@@H]3C=C4c5cccc6[nH]cc(c56)C[C@H]4N(C)C3)CC2)cc1 | 184 to 187
CC(=O)Nc1c(SC(F)(F)F)c(C#N)nn1-c1c(Cl)cc(C(F)(F)F)cc1Cl | 217 to 218
COc1ccc(CN2CCN(c3nc(C)c(C(N)=O)s3)C2=O)cc1F | 182 to 184
CCc1nc(C)[nH]c1I | 156 to 159
CC(=O)Nc1cnc(Br)c(N)n1 | 218 to 221
Cc1cc(C#CC2(O)CN3CCC2CC3)cc(C)c1OCCOc1ccccc1 (configuration not stated) | 141 to 142
COc1cc2c(cc1O)CCN(C(=O)NCCN(C(C)C)C(C)C)C2c1ccccc1 (configuration not stated) | 91 to 92
CC(=O)OC1C(c2ccccc2)=C(c2ccc(S(C)(=O)=O)cc2)C1(C)C (configuration not stated) | 60 to 61
O=C(O)c1c[nH]c(=S)n1C1CCc2cc(F)cc(F)c2C1 (configuration not stated) | 207 to 208
O=C1NCCn2c1c(-c1ccccc1)c1ccccc1c2=O | > 300
CCCn1c(=O)[nH]c2ccc(C(=O)c3nc(NS(C)(=O)=O)c4ccccn34)cc2c1=O | 334
Cc1oc(-c2ccccc2)nc1CCc1nc(COc2cccc(CC(=O)O)c2)cs1 | 153 to 154
Cc1cc2c(cc1C)SC(CCCN1CCN(c3ccc(F)cc3)CC1)C(=O)N2 (configuration not stated) | 161 to 162
O=C(NNCCO)c1ccc(NCc2cc(Br)ccc2OCc2ccccc2)cc1 | 121 to 122
CCn1c(C)c(C(C)=O)c(N=Cc2ccccc2)c1-c1ccccc1 | 139 to 141
O=C(NCCCSc1ccncc1)c1cccs1 | 112 to 113
CCOC(=O)CCn1c(C(=O)NC(N)=S)cc2ccccc21 | 160 to 162
O=C(Nc1ccccc1S(=O)(=O)c1ccccc1)N[C@@H](Cc1ccc(NC(=O)c2c(Cl)cncc2Cl)cc1)C(=O)O | 214
Cc1ccc(C#N)c(Sc2ccc(F)cc2)c1 | 93 to 96
COc1ccc2nc(NC(=O)C(CC3CCCC3)c3ccc(S(=O)(=O)N(C)C)cc3)sc2n1 (configuration not stated) | 229 to 234
COc1ccc(-c2cc[nH]c(=O)n2)cc1OC1CC2CCC1C2 (configuration not stated) | 220
